Measured values: PMC9173638 (PLoS Genetics, 2022)
Several values for one entry are separate records, joined by “and”; a condition that tells them apart may be missing. Equal values may be shown once. Entries after “also recorded” stand apart in the source; their conditions may differ. No end group written: not given here.

How the values were obtained:
[1] = system: PepF; experiment: Screening of sXIP variants for susceptibility to PepF degradation; assay type: in vitro ADME, Streptococcus salivarius HSISS4; details: for percentage of signal loss: peptide 500 nM pre-incubated with PepF 7 nM, 4 h, 37°C vs without PepF, PcomS-luxAB ΔcomS reporter luminescence, mean of technical triplicates; for peptidase resistance in the screening: PepF 7 nM, peptide 500 nM, signal loss compared with native XIP
Description: We next investigated which residues of the pheromone are crucial for peptidase cleavage and screened 20 peptides variants with single XIP mutations. We incubated those peptides with PepF at a mid-range concentration previously identified for the native XIP ([PepF] of 7 nM and [XIP] of 500 nM). Next, we added the peptides incubated or not with PepF to the PcomS-luxAB ΔcomS reporter strain and analyzed the percentage of signal loss upon incubation with the peptidase. […] To quantify more accurately the PepF resistance of variants at those two positions, we used the same degradation assay as used for native sXIP and measured the EC50 for each variant (Figs 5A and S5). Since F4W, F4Y and A5I variants were the most resistant, we combined mutations at positions 4 and 5 in a single peptide to increase its robustness to degradation. […] Because our degradation assay is based on an indirect method of quantification through the use of a reporter strain, bias could be introduced by the effect of the mutations on the ComR-pheromone affinity. To rule out this possibility, we measured the ComR-binding properties of the peptides by electrophoretic mobility shift assays (S6 Fig). Since no correlation between peptide-binding to ComR and pheromone sensitivity to degradation could be drawn, we concluded that the luciferase degradation assay reflects the peptide susceptibility to PepF.
Supplementary file pgen.1010198.s004.tif: S4 Fig Screening of sXIP variants for competence activation and susceptibility to PepF degradation. Specific maximum luciferase activity (RLU/OD600) upon peptide addition is plotted against the loss of signal with the peptide pre-incubated with PepF (plotted as a percentage of signal loss). A total number of 20 sXIP variants of the native S. salivarius sXIP (LPYFAGCL) were tested. The different peptides (500 nM) were incubated during 4 h at 37°C with or without PepF (7 nM). The reaction mixture was then 10-fold diluted by addition to an exponential growing culture (CDM) of the reporter strain defective for the genetically-encoded pheromone XIP (PcomS-luxAB ΔcomS). Dots represents mean of technical triplicates. […] Red/blue dots denote peptides discarded/selected for subsequent characterization due to their weak/strong induction of competence. (TIF) Click here for additional data file.

[2] = molecular target: PepF (Streptococcus salivarius K12, UniProt J7TQB7); assay type: in vitro ADME, Streptococcus salivarius HSISS4; details: PepF gradient, peptide 500 nM, 4 h, 37°C
Chain of PepF (Streptococcus salivarius K12, UniProt J7TQB7) (J7TQB7 entry or part of it): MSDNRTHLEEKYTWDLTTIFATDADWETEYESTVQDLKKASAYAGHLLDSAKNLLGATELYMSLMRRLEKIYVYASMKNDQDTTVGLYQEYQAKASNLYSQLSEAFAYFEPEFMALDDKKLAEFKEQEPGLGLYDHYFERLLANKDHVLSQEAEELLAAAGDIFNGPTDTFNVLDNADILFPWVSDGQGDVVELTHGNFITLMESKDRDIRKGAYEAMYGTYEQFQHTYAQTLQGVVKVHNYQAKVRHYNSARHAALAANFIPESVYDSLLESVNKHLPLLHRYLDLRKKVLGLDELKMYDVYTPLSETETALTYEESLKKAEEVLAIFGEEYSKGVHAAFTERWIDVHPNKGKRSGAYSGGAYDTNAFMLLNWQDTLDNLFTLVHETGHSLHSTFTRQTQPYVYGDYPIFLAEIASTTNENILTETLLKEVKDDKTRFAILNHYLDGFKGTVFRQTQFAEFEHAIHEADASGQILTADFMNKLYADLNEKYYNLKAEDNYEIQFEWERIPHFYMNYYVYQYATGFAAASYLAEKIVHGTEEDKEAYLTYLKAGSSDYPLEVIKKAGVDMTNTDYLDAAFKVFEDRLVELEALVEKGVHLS
Description: (§1) Overnight precultures were diluted at a final OD600 of 0.05. A volume of 300 μL of culture samples was transferred in the wells of a sterile covered white microplate with a transparent bottom (Greiner, Alphen a/d Rijn, The Netherlands). These culture samples were supplemented with D-xylose or IPTG if stated or further incubated for 100 min at 37°C before supplementation with sXIP or other peptides variants. Growth (OD600) and luciferase (Lux) activity (expressed in relative light units, RLU) were monitored at 10 min intervals during 6 to 24 h in a Hidex Sense microplate reader (Hidex, Lemminkäisenkatu, Finland). Specific or maximum specific Lux activity were obtained by dividing Lux activity by the OD600 for each measurement and summing all the data obtained over time or selecting the maximum value, respectively. Biological or technical triplicates were then averaged. Statistical analyses of simple and multiple comparisons to the control mean were performed with t-test (unilateral distribution, heteroscedastic) and one-way ANOVA with Dunnett’s test, respectively. For both, standard deviations and P values were calculated.
For PepF purification, the PCR-amplified pepF gene from strain HSISS4 was cloned into the pBAD-covR-STN-ter vector [24]. […] Protein purity was analyzed by SDS-PAGE and concentration was measured using a Nanodrop apparatus (A280 method; ThermoFisher Scientific). […]

[3] = system: PepF; experiment: Kinetics of peptide degradation by PepF; assay type: in vitro ADME, Streptococcus salivarius HSISS4; details: PepF 8 nM, peptide 500 nM, 6 h, 37°C
Description: Fig 5 Degradation of PepF-resistant sXIP peptides. (A) PepF degradation efficiency for XIP (LPY[F/Y/W][A/M/I/V]GCL) variants. […] Bars denote standard deviations on the EC50 computation. (B) XIP and XIPF4WA5I kinetics of degradation by PepF. PepF (8 nM) and the peptides (500 nM) were incubated 6 hours at 37°C and sampled every hour for analysis. Reaction was stopped by adding 1 mM EDTA and further added to the PcomS-luxAB ΔcomS reporter strain as previously described. Dots show technical triplicates, the line connects mean values with error bars (standard deviation).
(§2) sXIP and derivatives were incubated at 500 nM with PepF at different concentrations ranging from 100 to 0.025 nM during 4 h at 37°C as described in the previous section. 30 μL of the mix was then added to 270 μL of exponential phase culture of a PcomS reporter strain defective for the pheromone (PcomS-luxAB ΔcomS) and maximum luciferase activity was computed as reported above. Maximum values obtained were normalized by the signal recorded for the peptide incubated without the peptidase and enzyme concentration affording half luminescence (EC50) was extrapolated using Graphpad Prism and the non-linear extrapolation equation: Signal=b+(t−b)/(1+IC50/[PepF]^HS) where t stands for top, b for bottom, and HS for Hill-Slope.

[4] = system: PepF; experiment: recombinant PepF in reaction buffer (20 mM Tris HCl, pH 7.0); details: S. salivarius HSISS4, 37°C, up to 4 h
[5] = system: PcomS-luxAB ΔcomS reporter strain; experiment: Screening of sXIP variants for competence activation; assay type: cell-based, Streptococcus salivarius; details: peptide 500 nM incubated 4 h 37°C without PepF, 10-fold diluted into PcomS-luxAB ΔcomS culture (CDM); mean of technical triplicates
Description: as §1
Supplementary file pgen.1010198.s004.tif: S4 Fig Screening of sXIP variants for competence activation and susceptibility to PepF degradation. […]

[6] = system: PepFSsa; assay type: in vitro ADME, Streptococcus salivarius HSISS4; details: from EC50 values
Description: as §2
Supplementary file pgen.1010198.s009.tif: S9 Fig Conservation of PepF in salivarius streptococci and susceptibility of S. vestibularis sXIP to PepF degradation. (A) Alignment of PepF performed with CLC Main Workbench multiple alignment tool (http://www.clcbio.com/products/clc-main-workbench/). PepF from 4 representative strains (i.e. S. salivarius HSISS4, S. thermophilus LMD-9, S. thermophilus LMG18311 and S. vestibularis NTC12167) were used for the alignment. Red, orange, and yellow denote 100%, 75%, and 50% conservation, respectively. The conserved Zinc-binding motif HEXXH is underlined. […]

Row | Substance | percentage of signal loss [1] | further results
1 | LPYFTGCL [LPYFTGCL] | 97.3896% | 
2 | LPYFVGCL [LPYFVGCL] | 94.8201% | 
3 | LPYYIGCL [LPYYIGCL] |  | proteolysis by PepF in vitro [2]: slower proteolysis
4 | LPYFIGCL [LPYFIGCL] | 78.4996% | peptidase resistance in the screening [1]: higher peptidase resistance
5 | LPAFAGCL [LPAFAGCL] | 83.5452% | 
6 | APYFMGCL [APYFMGCL] | 99.0138% | 
7 | LPYFAICL [LPYFAICL] | 1.804% | 
8 | LPYWAGCL [LPYWAGCL] | 68.1634% | peptidase resistance in the screening [1]: higher peptidase resistance
9 | LPYWIGCL [LPYWIGCL] |  | proteolysis by PepF in vitro [2]: slower proteolysis; degradation kinetics compared to the WT pheromone [3]: reduced degradation kinetics
10 | LPYFAGCL |  | cleaved bond [4]: F4-A5, major; also recorded: A5-G6, major
11 | _PYFMGCL [sXIP variant of the screening lacking the first residue] | 28.6586% | Max specific luciferase [5]: 2144.5 RLU/OD600
12 | LPYFAGCL [sXIP, reference compound] | 99.5932% | 
13 | LPYFAGAL [LPYFAGAL] | 99.8977% | 
14 | LPYFGGCL [LPYFGGCL] | 69.5765% | 
15 | LPYFAACL [LPYFAACL] | 99.6712% | 
16 | ITILPYFAGCL [ITILPYFAGCL] | 99.5087% | 
17 | LPYAAGCL [LPYAAGCL] | 77.0857% | 
18 | LPWFAGCL [LPWFAGCL] | 97.3022% | 
19 | LPYYAGCL [LPYYAGCL] | 89.6196% | peptidase resistance in the screening [1]: higher peptidase resistance
20 | LAYFAGCL [LAYFAGCL] | 40.0979% | 
21 | VPFFMIYY [sXIPSve] |  | PepF-mediated degradation, fold less efficient compared to XIPSsa/Sth [6]: ~ 15 fold
22 | LPYFMICL [LPYFMICL] | 10.0484% | 
23 | APYFAGCL [APYFAGCL] | 87.3461% and 90.7518% | 
24 | LPYFMGCL [LPYFMGCL] | 85.0947% | peptidase resistance in the screening [1]: higher peptidase resistance
25 | _PYFAGCL [sXIP variant of the screening lacking the first residue] |  | Max specific luciferase [5]: 1453.53 RLU/OD600
